Results reported in patent EP4656194A1, “COMPOSITION FOR PREVENTING OR TREATING POST-TRAUMATIC STRESS DISORDER, COMPRISING PHOSPHODIESTERASE TYPE 5 INHIBITOR AS ACTIVE INGREDIENT” (Aribio Co., Ltd, priority 2023, dated 2024).

Assays:
[1] = tested on: context-specific fear memory; assay: Passive avoidance test; assay type: in vivo; conditions: 12 MPK p.o. once daily, after 15 doses, followed by electric shock; male ICR mice
Procedure: (§1) Twenty-eight male ICR mice, 5 weeks old, weighing approximately 27-30 g, were used. The animals were housed in a controlled environment with a temperature of 26.8 ± 0.5°C, relative humidity of 48.4 ± 1.7%, and lighting from 07:00 to 19:00. They were fed a standard diet (AIN-93G diet) and given free access to drinking water. After 7 days of acclimation and habituation, healthy animals were selected for the experiments.
(§2) Mirodenafil was dissolved in 10 mL of distilled water to prepare a 12 mg/kg (MPK) solution. Sildenafil and tadalafil were similarly prepared at 12 MPK each.
(§3) • 1) Control group (n=7): p.o. administration of distilled water (D.W.) • 2) Experimental group 1 (n=7): p.o. administration of mirodenafil (12 MPK) • 3) Experimental group 2 (n=7): p.o. administration of sildenafil (12 MPK) • 4) Experimental group 3 (n=7): p.o. administration of tadalafil (12 MPK)
(§4) Following 7 days of acclimation, the control group received distilled water orally once daily for 15 days, and the experimental groups received their respective drugs orally once daily for 15 days.
The passive avoidance step-through apparatus was illuminated in the bright chamber at 50% lightness. Mice were placed inside and allowed to move freely between the bright and dark chambers for 5 minutes. After 5 minutes, accommodation was terminated, and mice rested in their home cages.
Mice that completed accommodation were placed in the bright chamber under the same lighting conditions. When the mouse fully entered the dark chamber (all four paws on the floor), an electric shock (0.4 mA, 2 seconds, repeated twice with a 2-second interval) was delivered (maximum latency: 65 seconds, single session). […]
Mice that completed training were placed again in the bright chamber under the same conditions. The latency to enter the dark chamber (all four paws touching the floor) was recorded without shock (maximum latency: 300 seconds). […]
(§5) Data were expressed as mean ± standard error of the mean (SEM). Statistical significance was assessed by T-test with thresholds of P < 0.01 or *0.01 < P < 0.05. […]

[2] = tested on: spatial recognition and memory; assay: Y-maze test; assay type: in vivo, male ICR mice; conditions: 12 MPK p.o. once daily, ten days after drug administration; control 61.8%
Procedure: as §1, §2, §3, §4
Mice were placed at the center of a Y-maze and allowed to explore for 8 minutes. Entries were recorded when all four paws fully entered an arm. The maze was cleaned with 70% alcohol between tests. Spontaneous alternation behavior was analyzed using the Yamada statistical method. An alternation was counted when the mouse consecutively entered three different arms. The percentage of spontaneous alternation was calculated as (number of alternations / total arm entries) × 100. • iii. Recording data(ex): BCABCBABCBCABBCACBACCABCABCACBCABC • iv. [formula]
Data were expressed as mean ± standard error of the mean (SEM). Statistical significance was assessed by T-test with thresholds of P < 0.01 or *0.01 < P < 0.05. Data analysis and plotting were performed using Prism 8 software.

[3] = tested on: object recognition and memory; assay: Novel object recognition test; assay type: in vivo, male ICR mice; conditions: 12 MPK p.o. once daily, eight days after drug administration; control group 49.0%
Procedure: as §1, §2, §3, §4
Mice were placed in the center of a rat cage and allowed to explore freely for 5 minutes (accommodation). Afterward, mice rested in their home cages.
Following accommodation, two identical objects (Object A and Object B) of the same color, shape, and size were placed at fixed intervals in the cage. […]
Twenty-four hours after Training 1, mice were reintroduced to the cage with the same objects (A and B) spaced similarly. Exploration time of each object was recorded for 5 minutes. […]
Twenty-four hours after Training 2, mice were introduced to the cage containing one familiar object (A) and one novel object (C) differing in color, shape, or size. Exploration time was recorded for 5 minutes. The percentage of time spent exploring each object was calculated using the following formula: (Formula to calculate % exploration time for objects) • i. […]
as §5

| SMILES | decrease of latency time compared to the control [1] | spontaneous alternation rates [2] | exploration of novel objects [3] |
| --- | --- | --- | --- |
| CCCOc1ccc(S(=O)(=O)N2CCN(CCO)CC2)cc1-c1nc2c(CCC)cn(CC)c2c(=O)[nH]1 [mirodenafil] | 73.5% | 58.4% | 53.7% |
| CCCc1nn(C)c2c(=O)[nH]c(-c3cc(S(=O)(=O)N4CCN(C)CC4)ccc3OCC)nc12 [sildenafil] | 55.5% | 60.7% | 57.9% |
| CN1CC(=O)N2[C@H](c3ccc4c(c3)OCO4)c3[nH]c4ccccc4c3C[C@@H]2C1=O [tadalafil] | 63.2% | 59.6% | 57.0% |
